Measurements reported in patent US20110112308A1 (NOVARTIS AG, priority 2006, published 2011).

Experiments:
[1] = Solubility, 24-hour equilibration at room temperature; type: physicochemical; conditions: for Solubility: approx. at 25° C.
Experimental: Aqueous Solubility: A carefully weighted amount (20-50 mg) of sample is dissolved in 1 ml of solvent with 24-hour equilibration at room temperature. The solubility was determined either gravimetrically or by UV-VIS spectrometry. The pH of the clear solution was also measured. However, the difficulty of determining salt solubilities in water should be stressed, since upon dissolution dissociation to the free form is possible, which affects both the solubility and the pH. It's not unlikely that attempts to make solutions of a salt at a concentration well below the reported solubility of the salt to be unsuccessful (for a full discussion see: M. Pudipeddi, A. T. M. Serajuddin, D. J. W. Grant, and P. H. Stahl in “Handbook of Pharmaceutical Salts Properties Selection and Use” page 27 and references therein).

[2] = Equilibration in solvents and buffers: form conversion; conditions: water / aqueous solutions
[3] = Stability of mixtures with excipients; type: physicochemical
Experimental: (§1) All samples were prepared/diluted to a concentration of 0.2 mg/mL in methanol prior to analysis by HPLC. A freshly prepared sample of each salt was used as the reference standard for external standard calibration analysis.

[4] = pH of saturated solution or 1% suspension in water; type: physicochemical; conditions: In pH = 6.8 buffer
[5] = Solution stability (HPLC); type: physicochemical
Experimental: as §1

[6] = Intrinsic dissolution rate, rotation disk method; type: physicochemical; conditions: for Intrinsic Dissolution Rate: 37° C., 200 r.p.m.
Procedure, shortened: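 Pellets of drug substance dissolved by rotating disk at 200 r.p.m. into a 500 mL vessel at 37 °C. Dissolved drug monitored continuously by recirculating the medium through a UV cell.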

Solid-state stability = type: physicochemical; conditions: for Bulk stability (XRPD): 1 week
Experimental: as §1

[7] = pH of saturated solution or 1% suspension in water; type: physicochemical; conditions: room temperature
Experimental: pH Value: The pH at room temperature of a saturated solution or 1% suspension of the drug substance in water was recorded.

[8] = Mixture 1: 50% PVP + 50% Crospovidone, 50° C./75% r.h., 2 weeks
[9] = Mixture 2: 50% Starch 1500 + 5% MCC 102, 50° C./75% r.h., 2 weeks
[10] = Mixture 3: 5% PVP + 5% Crospovidone + 10% Starch 1500 + 80% MCC 102, 50° C./75% r.h., 2 weeks
[11] = Mixture 4: 99% Lactose + 1% BHT/BHA, 50° C./75% r.h., 2 weeks
[12] = Mixture 5: 99% Mannitol + 1% BHT/BHA, 50° C./75% r.h., 2 weeks
[13] = Mixture 6: 50% Mannitol + 47% HPCLH21 + 1% BHT/BHA + 2% Magnesium Stearate, 50° C./75% r.h., 2 weeks
[14] = Mixture 7: 50% Cetyl Alcohol + 49% HPCLH21 + 1% Magnesium Stearate, 50° C./75% r.h., 2 weeks
[15] = 2 mg/mL in methanol, 1 week at 50° C.
[16] = 2 mg/mL in water, 1 week at 50° C.
[17] = 2% in 0.5% HPMC 4000, 1 day at RT
[18] = 2% in 0.5% Klucel HF, 1 day at RT
[19] = 2% in 0.8% Tween 80, 1 day at RT
[20] = 5% solution, 1 day at RT (diluted 1:100 in pH 6.8 buffer)
[21] = Bulk stability, 2 weeks, 50° C.
[22] = Bulk stability, 2 weeks, 50° C./20% water
[23] = Bulk stability, 2 weeks, 50° C./75% r.h.
[24] = Light study, 1200 kLux (300-800 nm)

Compound: CS(=O)(=O)O.Cc1[nH]c2ccccc2c1CCNCc1ccc(/C=C/C(=O)NO)cc1 [Mesylate, 1:1 mesylate salt of N-hydroxy-3-[4-[[[2-(2-methyl-1H-indol-3-yl)ethyl]amino]methyl]phenyl]-2E-2-propenamide]
- aqueous solubility [1]: 12.9 mg/mL
- solubility in methanol and ethanol, in words [1]: high
- solubility in other common / remaining organic solvents, in words [1]: appreciable
- Solubility ([1]; 0.1N HCl): 0.6 mg/mL
- Solubility ([1]; 2-Propanol): 2.2 mg/mL
- Solubility ([1]; Acetone): 3.0 mg/mL
- Solubility ([1]; Ethanol): 14.6 mg/mL
- Solubility ([1]; Ethyl acetate): 6.4 mg/mL
- Solubility ([1]; Methanol): >115 mg/mL
- Solubility ([1]; Propylene glycol): 46.5 mg/mL
- Solubility ([1]; Water): 12.9 mg/mL
- behaviour of clear aqueous solutions on storage ([1]; concentration below the reported solubility, precipitate found to be the free base): solid precipitation occurred
- approximate solubility in water as % ([1]; estimated from mg/mL assuming solution density 1 g/mL): 1.3%
- Solubility ([1]; pH = 6.8 buffer): 4.1 mg/mL
- conversion upon equilibration [2]: polymorphic transformation
- % DP (total degradation products) [3, 8]: 0.8 % area
- % DS (drug substance) [3, 8]: 99.2 % area
- % DP (total degradation products) [3, 9]: 0.7 % area
- % DS (drug substance) [3, 9]: 99.3 % area
- % DP (total degradation products) [3, 10]: 0.7 % area
- % DS (drug substance) [3, 10]: 99.3 % area
- % DP (total degradation products) [3, 11]: 0.8 % area
- % DS (drug substance) [3, 11]: 99.2 % area
- % DP (total degradation products) [3, 12]: 0.8 % area
- % DS (drug substance) [3, 12]: 99.2 % area
- % DP (total degradation products) [3, 13]: 0.7 % area
- % DS (drug substance) [3, 13]: 99.3 % area
- % DP (total degradation products) [3, 14]: 0.6 % area
- % DS (drug substance) [3, 14]: 99.4 % area
- % DP (total degradation products) ([3]; Standard, freshly prepared): 0.5 % area
- % DS (drug substance) ([3]; Standard, freshly prepared): 99.5 % area
- stability with all excipient mixtures tested, in words ([3]; after 2 weeks at 50° C./75% r.h.): very good stability
- pH of saturated solution [4]: 5.38
- pH of initial mixture ([5]; 2 mg/mL in 100 mM lactate buffer, pH 3.5): 3.48
- % DP (total degradation products) [5, 15]: 0.62 % area
- assay [5, 15]: [101.2]
- pH of initial mixture ([5]; 2 mg/mL in water): 6.55
- % DP (total degradation products) [5, 16]: 1.16 % area
- assay [5, 16]: [99.30]
- % DP (total degradation products) ([5]; 2 mg/mL, 100 mM lactate buffer pH 3.5, 1 week at 50° C.): 1.60 % area
- assay ([5]; 2 mg/mL, 100 mM lactate buffer pH 3.5, 1 week at 50° C., external standard): [99.25]
- % DP (total degradation products) ([5]; 2% in 0.5% CMC, 1 day at RT): 0.74 % area
- CL (appearance) ([5]; 2% in 0.5% CMC, 1 day at RT): A↓↓
- assay ([5]; 2% in 0.5% CMC, 1 day at RT): [79.72]
- % DP (total degradation products) [5, 17]: 0.66 % area
- assay [5, 17]: [97.30]
- % DP (total degradation products) [5, 18]: 0.66 % area
- assay [5, 18]: [97.63]
- % DP (total degradation products) [5, 19]: 0.63 % area
- assay [5, 19]: [98.05]
- % DP (total degradation products) [5, 20]: 0.78 % area
- assay [5, 20]: [99.30]
- stability characteristics, in words ([5]; both in solution and in the solid state): very good stability
- Unstressed (% Area) ([5]; unstressed baseline of the stability study): 99.30% Area
- intrinsic dissolution (rate), in words [6]: high
- Intrinsic Dissolution Rate ([6]; HCl 0.1N): 6.51 mg min^−1 cm^−2
- Intrinsic Dissolution Rate ([6]; Water, free base pellet disintegrated, not true intrinsic rate): 10.17 mg min^−1 cm^−2
- Bulk stability (XRPD) (Solid-state stability; 80° C.): No change
- Bulk stability (XRPD) (Solid-state stability; 80° C./75% r.h.): No change
- % DP (total degradation products) (Solid-state stability; [21]): 0.80 % area
- assay (Solid-state stability; [21]): [99.35]
- % DP (total degradation products) (Solid-state stability; [22]): 1.48 % area
- assay (Solid-state stability; [22]): [97.36]
- % DP (total degradation products) (Solid-state stability; [23]): 1.20 % area
- assay (Solid-state stability; [23]): [100.0]
- % DP (total degradation products) (Solid-state stability; [24]): 1.16 % area
- CL (appearance) (Solid-state stability; [24]): B (B = slight discoloration)
- assay (Solid-state stability; [24]): [98.28]
- pH of saturated solution [7]: 4.34
